These results are taken from US20090227556A1, “RECEPTOR TYROSINE KINASE INHIBITORS COMPRISING PYRIDINE AND PYRIMIDINE DERIVATIVES” (Eisai R&D Management Co., Ltd., priority 2008, published 2009).

In test [1] the target is T1, KIT (Homo sapiens, UniProt P10721).
T1 construct: purchased Carna Biosciences Inc. 08-156
Description: Inhibitory action on KIT (ELISA). Particulars: recombinant human kinase. It is filed as biochemical. How it is done:
A test compound was dissolved in dimethyl sulfoxide to make a 10 mM solution, which was stored in a dark place at 4° C. until use.
Protein tyrosine kinases (recombinant human kinases) used in the study were the following products from Carna Biosciences Inc. (Kobe, Japan).
VEGFR-1 (FLT 1) (product number: 08-189) VEGFR-3 (FLT 4) (product number: 08-190) RON (product number: 08-152) RET (product number: 08-159) KIT (product number: 08-156)
Kinase activity was measured in a mobility shift assay (MSA) method (J. Biomolecular Screening, 11, 359-368, 2006) using QuickScout Screening Assist™ (Carna Biosciences Inc., commercial kit), and enzyme-linked immunoassay (ELISA).
10 μl of the test substance solution obtained by dissolving or suspending in the assay buffer (15 mM Tris, 0.01% Tween 20, 2 mM DTT, pH 7.5) (4× final concentration), or 10 μl of a solvent (4% dimethyl sulfoxide-assay buffer) was dispensed into a DELFIA Streptavidin-coated clear plate (PerkinElmer Inc., product number 4009-0010). Then, 10 μl of an ATP/substrate/metal solution of QuickScout Screening Assist™ ELISA was added. Additionally, 20 μl of the kinase solution diluted with the assay buffer was added to initiate a reaction. For a blank, only 20 μl of the assay buffer was added. The assay method was in accordance with the protocol of QuickScout Screening Assist™ ELISA. After the reaction, the absorbance at 450 nm in each well was measured using SpectraMax (Molecular Devices, California, U.S.A).

The test system of test [2] is Human umbilical vein endothelial cells (HUVECs). Description: Growth inhibitory activity on human umbilical vein endothelial cells stimulated by VEGF. It is filed as cell-based. The conditions noted are these: HUVEC, 72 h, 3 days, Cell Counting Kit-8. How it is done:
Human umbilical vein endothelial cells (HUVECs) were isolated according to the reported method (Shin-seikagaku jikken kouza “saibou baiyou gijutu (Cell culturing techniques)” p. 197-202) and incubated to confluence using an EGM-2 culture medium (obtained from Sanko Junyaku Co., Ltd.) in a 5% CO2 incubator (37° C.). The HUVECs were collected by a trypsin-EDTA treatment and washed with a culture medium (2% fetal bovine serum-supplemented Human endothelial SFM basal medium, obtained from Invitrogen Corp.), followed by suspending them in the medium to count the cell number. By diluting it with the medium, a 2×10^4 cells/ml cell suspension was prepared. The cell suspension was dispensed into a 96-well plate (obtained from FALCON) by 100 μl each, and incubated at 37° C. in a 5% CO2 incubator overnight. After the incubation, 50 μl of the test substance diluted with the medium was added to each well, and 50 μL of 80 ng/ml human recombinant VEGF (obtained from R&D systems, Inc.) diluted with the medium was added and further incubated for 3 days in the 5% CO2 incubator (37° C.). After the incubation, 20 μl of Cell Counting Kit-8 (obtained from DOJINDO Laboratories) was added to each well, which were incubated for about 2 hours in the 5% CO2 incubator (37° C.). After the incubation, the absorbance of the each well was measured using a plate reader MTP-500 (Corona Electric Co., Ltd) with a measurement wavelength of 450 nm and a control wavelength of 660 nm. A ratio of absorbance (%) of each well with the test substance against the wells without the test substance was determined, and based on this ratio, the concentration of the test substance required to inhibit 50% of cell proliferation (IC50) was determined and the results are shown in Table 2.
For orientation: Tetrazolium dyes change colour on reduction, which living cells bring about.

The target in test [3] is T2, VEGFR-2 tyrosine kinase (His6-VEGFR-2, cytoplasmic domain) (Homo sapiens, UniProt P35968).
T2 construct: made in house; host or cells: Sf9 insect cells (baculovirus, pFastBac-HT)
T2 sequence (P35968 786-1356 limits assumed): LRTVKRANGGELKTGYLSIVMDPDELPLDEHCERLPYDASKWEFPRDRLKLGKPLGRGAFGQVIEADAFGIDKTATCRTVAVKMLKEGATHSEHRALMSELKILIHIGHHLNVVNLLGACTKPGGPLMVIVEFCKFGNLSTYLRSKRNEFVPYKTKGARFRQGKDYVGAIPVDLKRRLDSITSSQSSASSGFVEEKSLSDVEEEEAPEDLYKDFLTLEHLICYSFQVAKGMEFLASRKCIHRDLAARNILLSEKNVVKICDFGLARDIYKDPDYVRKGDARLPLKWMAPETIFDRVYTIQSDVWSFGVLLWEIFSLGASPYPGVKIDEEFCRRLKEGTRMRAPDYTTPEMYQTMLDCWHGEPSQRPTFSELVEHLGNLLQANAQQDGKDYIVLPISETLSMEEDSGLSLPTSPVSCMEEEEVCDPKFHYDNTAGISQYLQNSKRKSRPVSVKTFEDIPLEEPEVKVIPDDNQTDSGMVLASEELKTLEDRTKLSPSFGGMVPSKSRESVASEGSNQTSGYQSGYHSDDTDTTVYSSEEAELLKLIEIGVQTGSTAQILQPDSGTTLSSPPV
Description: Inhibitory activity on VEGFR-2 tyrosine kinase (HTRF). It is filed as biochemical. The conditions noted are these: biotin-poly(GT) substrate. From the text:
Cytoplasmic domain of VEGFR-2 (Genbank Accession No. L04947) is a 1.7 kb DNA fragment starting from lysine 791 and contains a stop codon, as described by Tarman et al. (Oncogene, 6(9), 1677-1683, 1991). This DNA fragment was isolated from a human placental cDNA library (obtained from Clontech Laboratories, Inc.) with two primers (obtained from TaKaRa Ex Taq™ Kit, TaKaRa) using a PCR method. This DNA fragment was cloned into a baculovirus transplace vector (pFastBac™-HT (obtained from GIBCO BRL)), to obtain a recombinant construct. An insect cell (Spodoptera frugiperda 9 (Sf9)) was transfected with it, and a VEGFR-2 recombinant baculovirus solution was prepared (preparation of the recombinant baculovirus can be found in a standard textbook (Bac-to-Bac Baculovirus Expression System (GIBCO BRL)).
To Sf9 cells (3×10^8 cells) suspended in a SF-90011 culture medium containing 2% FBS (obtained from Invitrogen Corp.), the above mentioned recombinant VEGFR-2 baculovirus solution (4 ml) was added and incubated with shaking at 27° C. for 48 hours. The recombinant VEGFR-2 baculovirus-infected cell culture was centrifuged at 4° C. at 1000 rpm for 5 minutes, and the supernatant was removed. The precipitated infected cells were suspended in 80 ml of ice-cold PBS, the suspension was centrifuged at 4° C. at 1000 rpm for 5 minutes, and the supernatant was removed. The precipitated infected cells were suspended in 40 ml of ice-cold Lysis Buffer (50 mM Tris-HCl (pH 8.5), 5 mM 2-mercaptoethanol, 100 mM KCl, 1 mM PMSF, and 1% (v/v) NP-40). This suspension was centrifuged at 4° C. at 12,000 rpm for 30 min to obtain a supernatant.
This supernatant was added to a Ni-NTA agarose column (3 ml, obtained from Qiagen) which had been equilibrated with 30 ml of Buffer A (20 mM Tris-HCl (pH 8.5), 5 mM 2-mercaptoethanol, 500 mM KCl, 20 mM imidazole, and 10% (v/v) glycerol). This column was washed sequentially with 30 ml of Buffer A, 6 ml of Buffer B (20 mM Tris-HCl (pH 8.5), 5 mM 2-mercaptoethanol, 1M KCl, and 10% (v/v) glycerol), and 6 ml of Buffer A. Then, to this column, 6 ml of Buffer C (20 mM Tris-HCl (pH 8.5), 5 mM 2-mercaptoethanol, 100 mM KCl, 100 mM imidazole, and 10% (v/v) glycerol) was added to obtain an eluate. This eluate was poured into a dialysis membrane (obtained from Spectrum Laboratories) and dialyzed with 1 liter of dialysis buffer (20 mM Tris-HCl (pH 7.5), 10% (v/v) glycerol, 1 mM DTT, 0.1 mM Na3VO4, 0.1 mM EGTA) at 4° C. overnight and stored at −80° C. until use. After the dialysis, a part of the eluate was subjected to a SDS electrophoresis, and the recombinant protein (His 6-VEGFR-2, a cytoplasmic domain of VEGFR-2 fused with 6 histidine residues on its N-terminus) detected at about 100 kDa Mw in Coomassie Brilliant Blue staining was subjected to protein quantification using BSA (obtained from Sigma Co. Ltd.) as a standard.
In each well of a 96-well round bottom plate (obtained from NUNC, product number 163320), 10 μl of a solution for kinase reaction (200 mM Hepes (pH 7.4), 80 mM MgCl2, 16 mM MnCl2, 2 mM Na3VO4), 250 ng of biotin-conjugated poly (Glu 4: Tyr 1) (biotin-poly (GT) obtained from Nihon Schering K.K.) (6 μl of 1/15 diluted solution with distilled water), 15 ng of His6-VEGFR-2 (10 μl of a 1/240 diluted solution with a 0.4% BSA solution), and a test substance solution in dimethyl sulfoxide (4 μl of 1/100 dilution with 0.1% BSA) were added to make a total volume of 30 μl. To them, 10 μl of 4 μM ATP (obtained from Sigma Co. Ltd.) diluted with distilled water was added, and the resultant was incubated for 10 minutes at 30° C., followed by addition of 10 μl of 500 mM EDTA (pH 8.0) (obtained from Wako Pure Chemical Industries, Ltd.) to obtain a kinase reaction solution.
To detect tyrosine-phosphorylated biotin-poly (GT), the Homogenous Time-Resolved Fluorescence (HTRF) method was used (Analytical Biochemistry, 269, 94-104, 1999). […]
A general note: Time-resolved FRET reads energy transfer from a long-lived donor to a nearby acceptor.

In test [4] the test system is NIH3T3 cells transformed by mutated RET. Particulars: after injection of the cells to a nude mouse; cited from earlier work.
For test [5] the test system is unchanged. The conditions noted are these: cited from earlier work.
In test [6] the test system is human thyroid cancer cell line (TT). The conditions noted are these: subcutaneous TT model; cited from earlier work.

T1 sequence (P10721 26-976): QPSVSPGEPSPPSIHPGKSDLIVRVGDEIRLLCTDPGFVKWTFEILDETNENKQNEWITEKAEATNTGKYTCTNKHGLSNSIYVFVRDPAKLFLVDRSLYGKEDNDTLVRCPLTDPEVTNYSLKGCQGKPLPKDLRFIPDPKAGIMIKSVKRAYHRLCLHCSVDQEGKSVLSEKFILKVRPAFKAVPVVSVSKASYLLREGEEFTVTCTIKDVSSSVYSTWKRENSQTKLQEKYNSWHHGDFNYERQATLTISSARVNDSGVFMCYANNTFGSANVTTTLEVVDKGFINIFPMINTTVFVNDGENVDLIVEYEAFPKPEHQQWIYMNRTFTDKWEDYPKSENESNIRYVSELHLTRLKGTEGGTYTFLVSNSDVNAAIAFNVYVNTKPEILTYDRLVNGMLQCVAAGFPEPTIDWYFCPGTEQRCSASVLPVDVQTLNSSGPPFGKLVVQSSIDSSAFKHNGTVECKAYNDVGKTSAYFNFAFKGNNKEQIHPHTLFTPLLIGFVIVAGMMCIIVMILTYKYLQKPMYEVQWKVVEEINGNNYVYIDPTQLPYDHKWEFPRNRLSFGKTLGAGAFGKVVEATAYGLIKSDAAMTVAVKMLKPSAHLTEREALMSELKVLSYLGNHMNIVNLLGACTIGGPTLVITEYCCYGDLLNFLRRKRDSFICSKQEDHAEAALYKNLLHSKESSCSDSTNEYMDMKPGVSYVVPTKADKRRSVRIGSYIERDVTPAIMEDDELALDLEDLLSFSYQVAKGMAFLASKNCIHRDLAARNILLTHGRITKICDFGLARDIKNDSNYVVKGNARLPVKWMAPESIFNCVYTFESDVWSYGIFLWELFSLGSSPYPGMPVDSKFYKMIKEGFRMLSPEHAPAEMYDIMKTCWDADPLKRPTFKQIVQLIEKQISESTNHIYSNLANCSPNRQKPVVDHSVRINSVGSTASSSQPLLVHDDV

For the compound `CN1CCN(C2CCN(C(=O)Nc3cc(Oc4ccc(NC(=O)C5(C(=O)Nc6ccc(F)cc6)CC5)c(F)c4)ccn3)CC2)CC1` [N-(2-Fluoro-4-{[2-({[4-(4-methylpiperazin-1-yl)piperidin-1-yl]carbonyl}amino)pyridin-4-yl]oxy}phenyl)-N′-(4-fluorophenyl)cyclopropane-1,1-dicarboxamide], the IC50 in test [1] came to 100 nM; in test [2], 82 nM; in test [3] it was 240 nM.

With `COc1cc2c(Nc3ccc(Br)cc3F)ncnc2cc1OCC1CCN(C)CC1` [ZD6474], the tumorigenesis result in test [4] is on record as “inhibited tumorigenesis”. In addition, the anchorage-independent growth entry in test [5] is “suppressed anchorage-independent growth”.

Turning to `CNC(=O)c1cc(Oc2ccc(NC(=O)Nc3ccc(Cl)c(C(F)(F)F)c3)cc2)ccn1` [BAY 43-9006], the tumor size entry in test [6] is given as “reduced a tumor size”.

As usually defined, the IC50 is the concentration needed to halve the response being measured.
